Key:
[1] = tested on: caterpillars of the diamond-back moth (Plutella xylostella); test: Plutella test; type: in vivo; conditions: 40 ppm active compound, cabbage leaves dipped
Method: Plutella Test Solvent: 30 parts by weight of dimethylformamide Emulsifier: 1 part by weight of alkylaryl polyglycol ether To produce a suitable preparation of active compound, 1 part by weight of active compound is mixed with the stated amounts of solvent and emulsifier, and the concentrate is diluted with emulsifier-containing water to the desired concentration. Cabbage leaves (Brassica oleracea) are treated by being dipped into the preparation of active compound of the desired concentration and are populated with caterpillars of the diamond-back moth (Plutella xylostella) whilst the leaves are still moist. After the desired period of time, the kill in % is determined. 100% means that all caterpillars have been killed; 0% means that none of the caterpillars have been killed.

Lucilia cuprina larvae = test: Blowfly larvae test / development-inhibitory action; type: in vivo; conditions: 100 ppm active compound
Method: Blowfly Larvae Test/Development-Inhibitory Action Test animals: Lucilia cuprina larvae Solvent: Dimethyl sulphoxide 20 mg of active compound are dissolved in 1 ml of dimethyl sulphoxide, more dilute concentrations are prepared by dilution with distilled water. About 20 Lucilia cuprina larvae are introduced into a test tube which contains about 1 cm^3 of horse meat and 0.5 ml of the preparation of active compound to be tested. The efficacy of the preparation of active compound is determined after 24 and 48 hours. The test tubes are transferred into beakers whose bottom is covered with sand. After a further 2 days, the test tubes are removed and the pupae are counted. The activity of the preparation of active compound is assessed by the number of flies that have hatched after 1.5 times the development time of an untreated control. 100% means that no flies have hatched; 0% means that all flies have hatched normally.

Row | SMILES | Kill rate in % after 6d [1] | Kill rate in % after 48h (Lucilia cuprina larvae)
1 | CC(C)(C)n1nnc(-c2ccc(-c3ccc(C4CCC(c5c(F)cccc5F)=N4)cc3)cc2)n1 (stereo not drawn) [drawing 60] | 100% | –
2 | CCn1nnc(-c2ccc(-c3ccc(C4CCC(c5c(F)cccc5F)=N4)cc3)cc2)n1 (stereo not drawn) [drawing 71] | – | 100%
3 | CCOCn1nnc(-c2ccc(-c3ccc(C4CCC(c5c(F)cccc5F)=N4)cc3)cc2)n1 (stereo not drawn) [drawing 72] | – | 70%

— patent US20040152904A1, “Delta1 pyrrolines” (priority 2001, published 2004)
